Laboratory results taken from US10407409B2, “6-(5-hydroxy-1H-pyrazol-1-yl)nicotinamide inhibitors of PHD” (Takeda Pharmaceutical Company Limited, priority 2013, dated 2019).

Experiments:
[1] = target: PHD2 enzyme (residues 181-417) (Homo sapiens (Human), UniProt Q9GZT9); assay: Inhibition of PHD enzyme (LC/MS peptide hydroxylation assay); type: biochemical; settings: PHD2 (residues 181-417) 5 nM, 60 min pre-incubation; -log(IC50), IC50 molar
Procedure: Example A Inhibition of PHD Enzyme
The IC50 values for the PHD2 enzyme (residues 181-417) were determined by mixing increasing amounts of inhibitor with a fixed amount of enzyme (5 nM, final concentration) and Biotin labeled peptide (Biotin-Asp-Leu-Glu-Met-Leu-Ala-Pro-Tyr-Ile-Pro-Met-Asp-Asp-Asp-Phe-Gln-Leu, 1 uM final concentration) and 2-Oxyglutarate (2 uM final concentration) in 50 mM HEPES, 50 mM KCl, 0.5 mM TCEP, 2 uM FeCl2, 0.1 mg/ml BSA, at pH 7.3. The reaction was conducted by pre-incubating the enzyme in the presence of inhibitor for 60 min at room temperature. The activity of the free enzyme was measured by adding the peptide, the 2-Oxoglutarate (see above for final concentrations), and Ascorbic Acid (1 mM final concentration). The enzymatic activity was quenched after 60 min by adding an excess of a tight binding inhibitor to the assay mixture. The amount of product released was measured by using a LC/MS system (Agilent HPLC with Applied Biosystems API3000 Mass Spectrometer). Data were analyzed using the classical isotherm equation for the determination of IC50 values and are pIC50, i.e., −log(IC50), where IC50 is molar concentration and are reported as pIC50, i.e., −log(IC50), where IC50 is molar concentration.

[2] = test system: HIF1a protein in H9c2 rat cardiomyocytes; assay: Cell-based HIF-alpha stabilization assay (inhibition of PHD in cells); settings: 24 hrs compound incubation, HIF1a protein by ELISA; for EC50: Rattus norvegicus, H9c2, 24 h, read-out: Inhibition of PHD in cells (pEC50) (converted)
Procedure: Example B Inhibition of PHD in Cells
PHD Inhibition is Determined Using (Secondary Assay)
Cell-Based HIF-Alpha Stabilization Assay:
H9c2 rat cardiomyocytes (ATCC) were seeded in 96-well tissue culture microplates and cultured for 24 hours prior to addition of compounds (11 point range of serial dilutions) or dimethylsulfoxide vehicle. After 24 hrs of compound incubation, whole cell extracts were prepared by lysing cells in cell extraction buffer containing protease and phosphatase inhibitors (Meso-Scale Discovery). HIF1a protein content was assessed by ELISA (Meso-Scale Discovery) and expressed as a % relative to the maximum response obtained from the positive control, desferrioxamine (Sigma-Aldrich). Compound EC50s were obtained by curve-fitting using XLfit4 MicroSoft Excel curve-fitting software. Compound EC50pos were obtained using XLfit4 to calculate the compound concentration that results in 50% of the desferrioxamine maximum response.

Sequence of PHD2 enzyme (residues 181-417) (Q9GZT9 181-417): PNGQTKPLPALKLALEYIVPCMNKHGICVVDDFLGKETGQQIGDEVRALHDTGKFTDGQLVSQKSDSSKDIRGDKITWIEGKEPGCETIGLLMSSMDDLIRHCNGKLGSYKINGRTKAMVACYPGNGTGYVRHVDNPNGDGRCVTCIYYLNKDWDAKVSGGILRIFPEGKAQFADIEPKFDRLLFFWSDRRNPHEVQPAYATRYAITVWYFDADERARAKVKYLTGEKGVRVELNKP

Structure (SMILES)	PHD Inhibition (pIC50) [1]	EC50 [2]	Inhibition of PHD in cells (pEC50) [2]
COc1cc(-c2cnn(-c3ccc(C(=O)NCC4CCN(C)CC4)cn3)c2O)ccn1 [Example 30, 6-(5-hydroxy-4-(2-methoxypyridin-4-yl)-1H-pyrazol-1-yl)-N-((1-methylpiperidin-4-yl)methyl)nicotinamide]	7.5	2000 nM	
COc1cc(-c2cnn(-c3ccc(C(=O)NCCC4CCCN4C)cn3)c2O)ccn1 (centres unmarked) [Example 31, 6-(5-hydroxy-4-(2-methoxypyridin-4-yl)-1H-pyrazol-1-yl)-N-(2-(1-methylpyrrolidin-2-yl)ethyl)nicotinamide]	7.5		6.00
COc1cc(-c2cnn(-c3ccc(C(=O)NCCCN4CCOCC4)cn3)c2O)ccn1 [Example 32, 6-(5-hydroxy-4-(2-methoxypyridin-4-yl)-1H-pyrazol-1-yl)-N-(3-morpholinopropyl)nicotinamide]	7.8	813 nM	
COc1cc(-c2cnn(-c3ccc(C(=O)NC4CCN(C)CC4)cn3)c2O)ccn1 [Example 33, 6-(5-hydroxy-4-(2-methoxypyridin-4-yl)-1H-pyrazol-1-yl)-N-(1-methylpiperidin-4-yl)nicotinamide]	7.4	1170 nM	
CCNC(=O)c1ccc(-n2ncc(-c3ccnc(OC)c3)c2O)nc1 [Example 34, N-ethyl-6-(5-hydroxy-4-(2-methoxypyridin-4-yl)-1H-pyrazol-1-yl)nicotinamide]	8	513 nM	
COc1cc(-c2cnn(-c3ccc(C(=O)NCCCn4ccnc4)cn3)c2O)ccn1 [Example 35, N-(3-(1H-imidazol-1-yl)propyl)-6-(5-hydroxy-4-(2-methoxypyridin-4-yl)-1H-pyrazol-1-yl)nicotinamide]	7.8		5.50
COc1cc(-c2cnn(-c3ccc(C(=O)NCC4CCN(C)C4)cn3)c2O)ccn1 (centres unmarked) [Example 36, 6-(5-hydroxy-4-(2-methoxypyridin-4-yl)-1H-pyrazol-1-yl)-N-((1-methylpyrrolidin-3-yl)methyl)nicotinamide]	7.4	1480 nM	
COc1cc(-c2cnn(-c3ccc(C(=O)NCCCN4CCCCC4)cn3)c2O)ccn1 [Example 38, 6-(5-hydroxy-4-(2-methoxypyridin-4-yl)-1H-pyrazol-1-yl)-N-(3-(piperidin-1-yl)propyl)nicotinamide]	7.5		6.02
COc1cc(-c2cnn(-c3ccc(C(=O)NCCCN4CCCC4)cn3)c2O)ccn1 [Example 39, 6-(5-hydroxy-4-(2-methoxypyridin-4-yl)-1H-pyrazol-1-yl)-N-(3-(pyrrolidin-1-yl)propyl)nicotinamide]	7.3		5.58
CNC(=O)c1ccc(-n2ncc(-c3ccnc(OC)c3)c2O)nc1 [Example 40, 6-(5-hydroxy-4-(2-methoxypyridin-4-yl)-1H-pyrazol-1-yl)-N-methylnicotinamide]	7.9	977 nM	
COc1cc(-c2cnn(-c3ccc(C(=O)NC4CCN(C5CC5)CC4)cn3)c2O)ccn1 [Example 41, N-(1-cyclopropylpiperidin-4-yl)-6-(5-hydroxy-4-(2-methoxypyridin-4-yl)-1H-pyrazol-1-yl)nicotinamide]	8	550 nM	
CNCCCNC(=O)c1ccc(-n2ncc(-c3ccnc(OC)c3)c2O)nc1 [Example 42, 6-(5-hydroxy-4-(2-methoxypyridin-4-yl)-1H-pyrazol-1-yl)-N-(3-(methylamino)propyl)nicotinamide]	7.5	3390 nM	
COc1cc(-c2cnn(-c3ccc(C(=O)NCCCn4cccn4)cn3)c2O)ccn1 [Example 43, N-(3-(1H-pyrazol-1-yl)propyl)-6-(5-hydroxy-4-(2-methoxypyridin-4-yl)-1H-pyrazol-1-yl)nicotinamide]	8.2	347 nM	
COC[C@H]1CCC[C@H]1NC(=O)c1ccc(-n2ncc(-c3ccnc(OC)c3)c2O)nc1 [Example 45, 6-(5-hydroxy-4-(2-methoxypyridin-4-yl)-1H-pyrazol-1-yl)-N-((1R,2S)-2-(methoxymethyl)cyclopentyl)nicotinamide]	8	562 nM	
COc1cc(-c2cnn(-c3ccc(C(=O)NCC4CN(C)CCO4)cn3)c2O)ccn1 (centres unmarked) [Example 46, 6-(5-hydroxy-4-(2-methoxypyridin-4-yl)-1H-pyrazol-1-yl)-N-((4-methylmorpholin-2-yl)methyl)nicotinamide]	7.8	1350 nM	
COCC1(CNC(=O)c2ccc(-n3ncc(-c4ccnc(OC)c4)c3O)nc2)CCCC1 [Example 47, 6-(5-hydroxy-4-(2-methoxypyridin-4-yl)-1H-pyrazol-1-yl)-N-((1-(methoxymethyl)cyclopentyl)methyl)nicotinamide]	8.4	355 nM	
COc1cc(-c2cnn(-c3ccc(C(=O)NCC4CCCCO4)cn3)c2O)ccn1 (centres unmarked) [Example 48, 6-(5-hydroxy-4-(2-methoxypyridin-4-yl)-1H-pyrazol-1-yl)-N-((tetrahydro-2H-pyran-2-yl)methyl)nicotinamide]	8	646 nM	
COCC(C)CNC(=O)c1ccc(-n2ncc(-c3ccnc(OC)c3)c2O)nc1 (centres unmarked) [Example 49, 6-(5-hydroxy-4-(2-methoxypyridin-4-yl)-1H-pyrazol-1-yl)-N-(3-methoxy-2-methylpropyl)nicotinamide]	7.9	871 nM	
COc1cc(-c2cnn(-c3ccc(C(=O)NCCC(C)OC)cn3)c2O)ccn1 (centres unmarked) [Example 50, 6-(5-hydroxy-4-(2-methoxypyridin-4-yl)-1H-pyrazol-1-yl)-N-(3-methoxybutyl)nicotinamide]	8.1	871 nM	
COc1cc(-c2cnn(-c3ccc(C(=O)NC(C)(C)CN(C)C)cn3)c2O)ccn1 [Example 51, N-(1-(dimethylamino)-2-methylpropan-2-yl)-6-(5-hydroxy-4-(2-methoxypyridin-4-yl)-1H-pyrazol-1-yl)nicotinamide]	7.3	1820 nM	
COc1cc(-c2cnn(-c3ccc(C(=O)N[C@H]4CC[C@@H](C)CC4)cn3)c2O)ccn1 [Example 52, 6-(5-hydroxy-4-(2-methoxypyridin-4-yl)-1H-pyrazol-1-yl)-N-((1s,4s)-4-methylcyclohexyl)nicotinamide]	8.3	933 nM	
N#Cc1ccc(-c2cnn(-c3ccc(C(=O)NCCC4CC4)cn3)c2O)cc1 [Example 53, 6-(4-(4-cyanophenyl)-5-hydroxy-1H-pyrazol-1-yl)-N-(2-cyclopropylethyl)nicotinamide]	7.03	525 nM	
CC1(C)CC1NC(=O)c1ccc(-n2ncc(-c3ccc(C#N)cc3)c2O)nc1 (centres unmarked) [Example 54, 6-(4-(4-cyanophenyl)-5-hydroxy-1H-pyrazol-1-yl)-N-(2,2-dimethylcyclopropyl)nicotinamide]	7.22	331 nM	
COC(C)(C)CNC(=O)c1ccc(-n2ncc(-c3ccc(C#N)cc3)c2O)nc1 [Example 55, 6-(4-(4-cyanophenyl)-5-hydroxy-1H-pyrazol-1-yl)-N-(2-methoxy-2-methylpropyl)nicotinamide]	7.2	1860 nM	
COCC1(CNC(=O)c2ccc(-n3ncc(-c4ccc(C#N)cc4)c3O)nc2)CC1 [Example 56, 6-(4-(4-cyanophenyl)-5-hydroxy-1H-pyrazol-1-yl)-N-((1-(methoxymethyl)cyclopropyl)methyl)nicotinamide]	7.12	1450 nM	
CN1CCC(CNC(=O)c2ccc(-n3ncc(-c4ccc(C#N)cc4)c3O)nc2)CC1 [Example 57, 6-(4-(4-cyanophenyl)-5-hydroxy-1H-pyrazol-1-yl)-N-((1-methylpiperidin-4-yl)methyl)nicotinamide]	6.98		5.70
CC[C@@H](C)NC(=O)c1ccc(-n2ncc(-c3ccc(C#N)cc3C)c2O)nc1 [Example 58, (R)—N-(sec-butyl)-6-(4-(4-cyano-2-methylphenyl)-5-hydroxy-1H-pyrazol-1-yl)nicotinamide]	7.16	158 nM	
Cc1cc(C#N)ccc1-c1cnn(-c2ccc(C(=O)NC3CCOCC3)cn2)c1O [Example 59, 6-(4-(4-cyano-2-methylphenyl)-5-hydroxy-1H-pyrazol-1-yl)-N-(tetrahydro-2H-pyran-4-yl)nicotinamide]	7.33	70.8 nM	
